Laboratory results reported in US9790169B2, “IDO inhibitors” (BRISTOL-MYERS SQUIBB COMPANY, priority 2015, dated 2017).

Target: human IDO1 (Homo sapiens, UniProt P14902)
Experiment: Assessment of human IDO-1 inhibitory activity in Hela cells (Interferon-gamma stimulated HeLa cells, Ehrlich reagent, absorbance 490 nm)
Format: cell-based
Parameters: endogenous in cells; host or cells: HeLa cells stimulated with interferon-gamma
Details: Hela Human IDO-1 cellular assay
How it was run: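 IDO activity induced by 18 h IFN-γ (human 10 ng/ml or murine 5 ng/ml, final) after 1 h compound pre-treatment of HeLa cells at 37 °C. Supernatant kynurenine detected via Ehrlich reagent absorbance at 490 nm following 3% TCA at 50 °C; IC50 set against no-IFN-γ and untreated-stimulated controls.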

Sequence of human IDO1 (P14902 whole entry): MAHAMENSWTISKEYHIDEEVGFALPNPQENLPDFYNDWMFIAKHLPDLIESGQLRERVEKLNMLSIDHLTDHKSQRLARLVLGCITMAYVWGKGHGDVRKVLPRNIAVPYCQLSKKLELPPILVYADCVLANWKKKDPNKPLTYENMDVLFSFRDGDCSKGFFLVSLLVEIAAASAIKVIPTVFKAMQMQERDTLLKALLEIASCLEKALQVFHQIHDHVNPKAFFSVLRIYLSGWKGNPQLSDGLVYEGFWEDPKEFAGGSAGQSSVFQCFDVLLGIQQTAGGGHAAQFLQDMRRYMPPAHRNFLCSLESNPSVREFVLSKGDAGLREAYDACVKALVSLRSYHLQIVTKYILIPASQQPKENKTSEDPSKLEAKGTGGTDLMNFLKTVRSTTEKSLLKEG

`CCCN(c1ccc([C@H](CC)CC(=O)O)cc1Nc1cnc(OCC)nc1)C1CCOCC1` (single isomer, unassigned) [Example 546] and `CCC(CC(=O)O)c1ccc(N(CCOC)C2CCOCC2)c(Nc2ccc(C#N)cc2)c1` (single isomer, unassigned) [Example 1258, 3-(3-((4-cyanophenyl)amino)-4-((2-methoxyethyl)(tetrahydro-2H-pyran-4-yl)amino)phenyl)pentanoic acid] cannot be ordered by IC50: less than 5 nM for the first, less than 5 nM for the second.

`CCCN(c1ccc([C@H](COC)CC(=O)O)cc1Nc1cnc(OCC2CC2)nc1)C1CCOCC1` (single isomer, unassigned) [Example 573] and `CCCN(c1ccc(C(C)(C)CC(=O)O)cc1NC(=O)Nc1ccc(C)cc1)C1CCOCC1` [Example 25, 3-Methyl-3-(4-(propyl(tetrahydro-2H-pyran-4-yl)amino)-3-(3-(p-tolyl)ureido)phenyl)butanoic acid] cannot be ordered by IC50: less than 50 nM for the first, less than 50 nM for the second.

`CCC(CC(=O)O)c1ccc(N(CCOC)C2CCOCC2)c(NC(=O)Nc2ccc(Cl)cc2F)c1` (single isomer, unassigned) [Example 1265, 3-(3-(3-(4-chloro-2-fluorophenyl)ureido)-4-((2-methoxyethyl) (tetrahydro-2H-pyran-4-yl)amino)phenyl)pentanoic acid] and `CCOc1ccc(Nc2cc([C@H](CC)CC(=O)O)ccc2N(CC)C2CCOCC2)cn1` (single isomer, unassigned) [Example 509] cannot be ordered by IC50: less than 50 nM for the first, less than 5 nM for the second.

`CCCN(c1ccc([C@H](CC)CC(=O)O)cc1Nc1ccc(F)cc1)C1CCOCC1` (single isomer, unassigned) [Example 549] and `CCC(CC(=O)O)c1ccc(N2CCOC[C@H]2C(C)C)c(Nc2ccc(C#N)cc2)c1` (single isomer, unassigned) [Example 887] cannot be ordered by IC50: less than 5 nM for the first, less than 5 nM for the second.

`CCN(c1ccc([C@@H](COC)CC(=O)O)cc1Nc1ccc(S(=O)(=O)CC)cc1)C1CCOCC1` (single isomer, unassigned) [Example 386] and `CCN(c1ccc([C@@H](COC)CC(=O)O)cc1Nc1ccccc1C#N)C1CCOCC1` (single isomer, unassigned) [Example 369] cannot be ordered by IC50: greater than 50 nM for the first, greater than 50 nM for the second.

`CCN(c1c(F)cc(C(COC)CC(=O)O)cc1Nc1ccc(C#N)cc1)C1CCOCC1` (single isomer, unassigned) [Example 916, 3-(3-((4-Cyanophenyl)amino)-4-(ethyl(tetrahydro-2H-pyran-4-yl)amino)-5-fluorophenyl)-4-methoxybutanoic acid] and `CCN(c1ccc([C@@H](COC)CC(=O)O)cc1Nc1ccc(F)cn1)C1CCOCC1` (single isomer, unassigned) [Example 363] cannot be ordered by IC50: less than 5 nM for the first, less than 50 nM for the second.

Going from “(R)-3-(3-((4-chlorophenyl)amino)-4-((1,1-dioxidotetrahydro-2H- thiopyran-4-yl)(ethyl)amino) phenyl)-4-isopropoxybutanoic acid [Example 330]” to `CCC(CC(=O)O)c1ccc(N2CCC(C)CC2)c(Nc2cnc(OC)nc2)c1` (single isomer, unassigned) [Example 42, 3-(3-((2-methoxypyrimidin-5-yl)amino)-4-(4-methylpiperidin-1-yl)phenyl)pentanoic acid], the IC50 rises from less than 5 nM to greater than 50 nM. The first is the more potent here.

Going from `CCOc1ncc(Nc2cc(C(C)(C)CC(=O)O)ccc2N(CCOC)C2CCOCC2)cn1` [Example 17, 3-(3-((2-ethoxypyrimidin-5-yl)amino)-4-((2-methoxyethyl)(tetrahydro-2H-pyran-4-yl)amino)phenyl)-3-methylbutanoic acid] to `CCCN(c1ccc([C@@H](CC)CC(=O)O)cc1NC(=O)Nc1ccc(Cl)cc1F)C1CCOCC1` (single isomer, unassigned) [Example 544], the IC50 falls from greater than 50 nM to less than 5 nM. The second is the more potent here.

Going from `CC[C@@H](CC(=O)O)c1ccc(N(CC)C2CCOCC2)c(Nc2ccc(N(C)C)nc2)c1` (single isomer, unassigned) [Example 463] to `CCN(c1ccc([C@@H](COC)CC(=O)O)cc1Nc1ccc(C#N)cn1)C1CCOCC1` (single isomer, unassigned) [Example 352], the IC50 falls from greater than 50 nM to less than 50 nM. The second is the more potent here.

Compared with `CCC(CC(=O)O)c1cc(F)c(N(CC)C2CCOCC2)c(Nc2ccc(C#N)cn2)c1` (single isomer, unassigned) [Example 138, 3-(3-((5-cyanopyridin-2-yl)amino)-4-(ethyl (tetrahydro-2H-pyran-4-yl)amino)-5-fluorophenyl) pentanoic acid], `CCC(CC(=O)O)c1ccc(N(CCOC)C2CCOCC2)c(NC(=O)Nc2ccc(C)cc2)c1` (single isomer, unassigned) [Example 1264 E1, 3-(4-((2-Methoxyethyl)(tetrahydro-2H-pyran-4-yl)amino)-3-(3-(p-tolyl)ureido)phenyl)pentanoic acid] is higher in IC50: less than 5 nM for the first, greater than 50 nM for the second.

`CCN(c1ccc([C@H](COC)CC(=O)O)cc1NC(=O)Nc1ccc(F)cc1F)C1CCOCC1` (single isomer, unassigned) [Example 442] and `CCOc1ncc(Nc2cc(C(COC)CC(=O)O)ccc2N(CC)C2CCS(=O)(=O)CC2)cn1` (single isomer, unassigned) [Example 171, 3-(4-((1,1-dioxidotetrahydro-2H-thiopyran-4-yl)(ethyl)amino)-3-((2-ethoxypyrimidin-5-yl)amino)phenyl)-4-methoxybutanoic acid] cannot be ordered by IC50: greater than 50 nM for the first, greater than 50 nM for the second.

`CCC1COCCN1c1ccc([C@@H](COC)CC(=O)O)cc1Nc1ccc(C#N)cn1` (single isomer, unassigned) [Example 1283] and `CCN(c1ccc([C@@H](COC)CC(=O)O)cc1Nc1ccc(C(N)=O)cc1)C1CCOCC1` (single isomer, unassigned) [Example 385] cannot be ordered by IC50: greater than 50 nM for the first, greater than 50 nM for the second.

`CCCN(c1ccc(C(CC)CC(=O)O)cc1NC(=O)Nc1ccc(C)cc1)C1CCOCC1` (single isomer, unassigned) [Example 557 Enantiomer 1, 3-(4-(Propyl(tetrahydro-2H-pyran-4-yl)amino)-3-(3-(p-tolyl)ureido)phenyl)pentanoic acid] and `CCC(CC(=O)O)c1ccc(N2C[C@@H]3C[C@H]2CN3C(=O)OC(C)(C)C)c(Nc2ccccc2)c1` (single isomer, unassigned) [Example 444] cannot be ordered by IC50: less than 50 nM for the first, less than 5 nM for the second.

`CCOc1ncc(Nc2cc([C@@H](CC)CC(C)(C)O)ccc2N(CC)C2CCOCC2)cn1` (single isomer, unassigned) [Example 1345] and `CCC1COCCN1c1ccc([C@@H](COC)CC(=O)O)cc1Nc1ccc(F)cc1` (single isomer, unassigned) [Example 1301] cannot be ordered by IC50: greater than 50 nM for the first, greater than 50 nM for the second.

Going from `CCC(CC(=O)O)c1cc(Nc2ccc(Cl)cc2)c(N(CC)C2CCOCC2)cc1F` (single isomer, unassigned) [Example 856, 3-(5-((4-Chlorophenyl)amino)-4-(ethyl(tetrahydro-2H-pyran-4-yl)amino)-2-fluorophenyl)pentanoic acid] to `CCCN(c1ccc(C(C)(C)CC(=O)O)cc1NC(=O)Nc1ccc(C#N)cc1)C1CCS(=O)(=O)CC1` [Example 190, 3-(3-(3-(4-Cyanophenyl)ureido)-4-((1,1-dioxidotetrahydro-2H-thiopyran-4-yl)(propyl)amino)phenyl)-3-methylbutanoic acid], the IC50 rises from less than 5 nM to greater than 50 nM. The first is the more potent here.

First: CCN(c1ccc(C2(CC(=O)O)CCOCC2)cc1Nc1ccc(C#N)cc1)C1CCOCC1 [Example 154, 2-(4-(3-((4-cyanophenyl)amino)-4-(ethyl (tetrahydro-2H-pyran-4-yl)amino)phenyl)tetrahydro-2H-pyran-4-yl)acetic acid]
Second: COCC(CC(=O)O)c1ccc(N2CCOC(C)(C)C2)c(NC(=O)Nc2ccc(Cl)cc2F)c1 (single isomer, unassigned) [Example 1318 E1, 3-(3-(3-(4-Chloro-2-fluorophenyl)ureido)-4-(2,2-dimethylmorpholino)phenyl)-4-methoxybutanoic acid]
The IC50 of the first is lower: less than 50 nM for the first, greater than 50 nM for the second. The first is the more potent here.

`CCCN(c1ccc([C@@H](COC)CC(=O)O)cc1Nc1ccc(OC)nc1)C1CCOCC1` (single isomer, unassigned) [Example 565] and `CCC(CC(=O)O)c1ccc(N2CCOC[C@H]2C(C)C)c(Nc2ccc(F)cc2)c1` (single isomer, unassigned) [Example 889] cannot be ordered by IC50: less than 50 nM for the first, less than 5 nM for the second.

`COCC(CC(=O)O)c1cc(F)c(N(CC(C)C)CC(C)C)c(Nc2ccc(Cl)cc2)c1` (single isomer, unassigned) [Example 920, 3-(3-((4-Chlorophenyl)amino)-4-(diisobutylamino)-5-fluorophenyl)-4-methoxybutanoic acid] and `CCN(c1cc(F)c(C(COC)CC(=O)O)cc1Nc1ccc(C#N)cc1F)C1CCOCC1` (single isomer, unassigned) [Example 847, 3-(5-((4-cyano-2-fluorophenyl)amino)-4-(ethyl (tetrahydro-2H-pyran-4-yl)amino)-2-fluorophenyl)-4-methoxybutanoic acid] cannot be ordered by IC50: less than 5 nM for the first, less than 5 nM for the second.

`CCOc1cc(Nc2cc([C@@H](COC)CC(=O)O)ccc2N(CC)C2CCOCC2)ccc1C#N` (single isomer, unassigned) [Example 370] and `CCN(c1ccc(C2(CC(=O)O)CCOCC2)cc1Nc1ccc(Cl)cc1)C1CCOCC1` [Example 155, 2-(4-(3-((4-chlorophenyl)amino)-4-(ethyl(tetrahydro-2H-pyran-4-yl)amino)phenyl)tetrahydro-2H-pyran-4-yl)acetic acid] cannot be ordered by IC50: less than 50 nM for the first, less than 5 nM for the second.

`CCCN(c1ccc([C@H](CC)CC(=O)O)cc1NC(=O)Nc1ccc(C#N)cc1)C1CCOCC1` (single isomer, unassigned) [Example 556] and `COCCN(c1ccc(C(C)(C)CC(=O)O)cc1Nc1ccc(Cl)cc1)C1CCOCC1` [Example 15, 3-(3-((4-Chlorophenyl)amino)-4-((2-methoxyethyl)(tetrahydro-2H-pyran-4-yl)amino)phenyl)-3-methylbutanoic acid] cannot be ordered by IC50: less than 50 nM for the first, less than 5 nM for the second.

With `COCC(CC(=O)O)c1ccc(NC2CCOCC2)c(Nc2ccc(C#N)cc2)c1` (single isomer, unassigned) [Example 928 E1, 3-(3-((4-Cyanophenyl)amino)-4-((tetrahydro-2H-pyran-4-yl)amino)phenyl)-4-methoxybutanoic acid] the IC50 was greater than 50 nM.
